The record followed here is ChEMBL document CHEMBL5131432, “Novel 2,4-disubstituted quinazoline analogs as antibacterial agents with improved cytotoxicity profile: Modification of the benzenoid part” (Bioorg Med Chem Lett, 2022).

Data set [1] has as its system Escherichia coli. The data set can be described thus: Antibacterial activity against Escherichia coli K12 harbouring TolC-deficient mutant assessed as bacterial growth inhibition. It is filed as functional.
Data set [2] can be described thus: Stability of the compound in presence of 25kGy gamma irradiation assessed as change in mass and purity by LC-MS analysis. It is filed as physicochemical.
Data set [3] in a line: Chemical stability of compound in DMSO assessed as change in retardation factor incubated for 2 days. It is filed as physicochemical. Particulars: 48 h; time 2 day.
In data set [4] the test system is Staphylococcus aureus. Nature of the data set: Antibacterial activity against methicillin-resistant and vancomycin-intermediate Staphylococcus aureus Mu50 assessed as bacterial growth inhibition. It is filed as functional.
The nature of data set [5]: Chemical stability of compound in DMSO assessed as change in mass and purity incubated for 2 days by LC-MS analysis. It is filed as physicochemical. Particulars: 48 h; time 2 day.
Data set [6] relates to Staphylococcus aureus. The data set can be described thus: Antibacterial activity against methicillin-resistant Staphylococcus aureus N315 assessed as bacterial growth inhibition. The format is functional.
A further data set has as its system Enterococcus faecalis. Nature of the data set: Antibacterial activity against Enterococcus faecalis DSM-20478 assessed as bacterial growth inhibition. The format is functional.
For data set [7], the system named is Staphylococcus aureus. Nature of the data set: Antibacterial activity against methicillin-sensitive Staphylococcus aureus Newman assessed as bacterial growth inhibition. The format is functional.
For the next data set, the system named is Enterococcus faecium. Nature of the data set: Antibacterial activity against Enterococcus faecium DSM-20477 assessed as bacterial growth inhibition. The format is functional.
The test system of data set [8] is Mycolicibacterium smegmatis. The data set can be described thus: Antibacterial activity against Mycobacterium smegmatis mc2 155 assessed as bacterial growth inhibition. It is filed as functional.
For data set [9], the system named is Streptococcus pneumoniae. Nature of the data set: Antibacterial activity against penicillin-resistant Streptococcus pneumoniae DSM-11865 assessed as bacterial growth inhibition. It is filed as functional.
Data set [10] is described as follows: Chemical stability of compound in DMSO assessed as change in physico-chemical properties incubated for 2 days. It is filed as physicochemical. The note with it: 48 h; time 2 day.
Data set [11] deals with Escherichia coli. The data set can be described thus: Antibacterial activity against wild type Escherichia coli DSM-11116 assessed as bacterial growth inhibition. It is filed as functional.
Data set [12] deals with Streptococcus pneumoniae. Nature of the data set: Antibacterial activity against Streptococcus pneumoniae DSM-20566 assessed as bacterial growth inhibition. The format is functional.
For data set [13], the system named is Escherichia coli. Nature of the data set: Antibacterial activity against Escherichia coli harbouring TolC-deficient mutant assessed as bacterial growth inhibition. It is filed as functional.
Data set [14] relates to Mycolicibacterium smegmatis. The data set can be described thus: Antibacterial activity against Mycobacterium smegmatis assessed as bacterial growth inhibition. The format is functional.
Data set [15] can be described thus: Selectivity index, ratio of IC50 for cytotoxicity against human HepG2 cells to MIC for antibacterial activity against Enterococcus faecium DSM-20477. It is filed as toxicity, cell-based.
Data set [16] can be described thus: Cytotoxicity against human HepG2 cells assessed as inhibition of cell growth. The format is toxicity, cell-based.
Data set [17] in a line: Selectivity index, ratio of IC50 for cytotoxicity against human HepG2 cells to MIC for antibacterial activity against Enterococcus faecalis DSM-20478. The format is toxicity, cell-based.
The nature of data set [18]: Selectivity index, ratio of IC50 for cytotoxicity against human HepG2 cells to MIC for antibacterial activity against Streptococcus pneumoniae DSM-20566. It is filed as toxicity, cell-based.
Data set [19] can be described thus: Selectivity index, ratio of IC50 for cytotoxicity against human HepG2 cells to MIC for antibacterial activity against methicillin-sensitive Staphylococcus aureus Newman. The format is toxicity, cell-based.

≈ marks a conversion by molar mass, not a printed value.

The MIC is the smallest concentration in the dilution series that meets the test's criterion for growth inhibition. Consider `CCCCNc1nc(SCCCC)nc2cc(F)ccc12`, for which the MIC in the data set on Escherichia coli [1], in the data set on Staphylococcus aureus [4], in the data set with Staphylococcus aureus [6], with Enterococcus faecalis, with Staphylococcus aureus [7] and with Enterococcus faecium was above 128 µg/mL each time. Also, the MIC (in [8]; with Streptococcus pneumoniae [9]; in the data set with Escherichia coli [11]; in the data set on Streptococcus pneumoniae [12]) was above 128 µg/mL throughout. Moreover, the Stability entry in [2], in data set [3], in data set [5] and in data set [10] was “Stable” throughout.

Turning to `CCCCNc1nc(SCCCC)nc2n[nH]cc12`, the MIC was 4 µg/mL (≈ 14.3 µM) in the data set with Escherichia coli [1]; above 128 µg/mL with Staphylococcus aureus [4]; above 128 µg/mL with Staphylococcus aureus [6]; above 128 µg/mL in the data set on Enterococcus faecalis; above 128 µg/mL with Staphylococcus aureus [7]; above 128 µg/mL in the data set on Enterococcus faecium. Also, the MIC (in data set [8]; with Streptococcus pneumoniae [9]; in the data set with Escherichia coli [11]; in the data set on Streptococcus pneumoniae [12]) was above 128 µg/mL in each case. The Stability entry in data set [2], in data set [3], in data set [5] and in [10] was “Stable” in each case.

For the compound `CCCCNc1nc(SCCCC)nc2ccccc12`, the MIC in the data set with Escherichia coli [1] turned out to be 2 µg/mL (≈ 6.91 µM); in the data set on Staphylococcus aureus [4] it was 4 µg/mL (≈ 13.8 µM); in the data set on Staphylococcus aureus [6] it was 8 µg/mL (≈ 27.6 µM); in the data set with Enterococcus faecalis it was 4 µg/mL (≈ 13.8 µM); in the data set on Staphylococcus aureus [7] it was 8 µg/mL (≈ 27.6 µM); in the data set with Enterococcus faecium it was 4 µg/mL (≈ 13.8 µM). Besides, the MIC in data set [8] is 8 µg/mL (≈ 27.6 µM); with Streptococcus pneumoniae [9], 3 µg/mL (≈ 10.4 µM); in the data set with Escherichia coli [13] it was 2 µg/mL (≈ 6.91 µM); in [14], 2 µg/mL (≈ 6.91 µM); in the data set on Escherichia coli [11] it was above 128 µg/mL; in the data set with Streptococcus pneumoniae [12] it was 4 µg/mL (≈ 13.8 µM).

The term IC50 denotes the concentration at which inhibition is half-maximal. For the compound `CCCCNc1nc(SCCCC)nc2ccc(-c3cccc(O)c3)cc12`, the MIC in the data set with Escherichia coli [1] was above 128 µg/mL; in the data set on Staphylococcus aureus [4], above 128 µg/mL; in the data set on Staphylococcus aureus [6] it was above 128 µg/mL; in the data set on Enterococcus faecalis, 2 µg/mL (≈ 5.24 µM); in the data set with Staphylococcus aureus [7] it was 2 µg/mL (≈ 5.24 µM); with Enterococcus faecium, 4 µg/mL (≈ 10.5 µM). For the same compound, the MIC in [8] was 16 µg/mL (≈ 41.9 µM); in the data set with Streptococcus pneumoniae [9], 16 µg/mL (≈ 41.9 µM); with Escherichia coli [11], above 128 µg/mL; in the data set on Streptococcus pneumoniae [12] it was 1 µg/mL (≈ 2.62 µM). For the same compound, the selectivity ratio in [15], in data set [17], in [18] and in data set [19] was 3 each time. For the same compound, the IC50 in [16] was found to be 15.3 µg/mL (≈ 40.1 µM).

With `CCCCNc1nc(SCCCC)nc2ccc(-c3ccccc3)cc12`, the MIC with Escherichia coli [1], in the data set on Staphylococcus aureus [4], with Staphylococcus aureus [6], with Enterococcus faecalis, in the data set on Staphylococcus aureus [7] and in the data set on Enterococcus faecium was above 128 µg/mL each time. Besides, the MIC (in data set [8]; in the data set with Streptococcus pneumoniae [9]; in the data set with Escherichia coli [11]; in the data set with Streptococcus pneumoniae [12]) was above 128 µg/mL each time. The Stability result in [2], in data set [3], in data set [5] and in data set [10] was “Stable” throughout.

For the compound `CCCCSc1nc(SCCCC)c2cc(N)ccc2n1`, the MIC was above 128 µg/mL with Escherichia coli [1]; 4 µg/mL (≈ 12.4 µM) in the data set on Staphylococcus aureus [4]; 4 µg/mL (≈ 12.4 µM) in the data set with Staphylococcus aureus [6]; 32 µg/mL (≈ 99.5 µM) with Enterococcus faecalis; 8 µg/mL (≈ 24.9 µM) in the data set with Staphylococcus aureus [7]; 8 µg/mL (≈ 24.9 µM) with Enterococcus faecium. Besides, the MIC is 32 µg/mL (≈ 99.5 µM) in data set [8], 8 µg/mL (≈ 24.9 µM) in the data set with Streptococcus pneumoniae [9], above 128 µg/mL in the data set on Escherichia coli [11] and 4 µg/mL (≈ 12.4 µM) in the data set with Streptococcus pneumoniae [12]. The IC50 in data set [16] is above 37 µg/mL.

Take `CCCCSc1nc(SCCCC)c2cc(NS(=O)(=O)CC)ccc2n1`: the MIC in the data set with Escherichia coli [1] was above 128 µg/mL; in the data set with Staphylococcus aureus [4], above 128 µg/mL; in the data set with Staphylococcus aureus [6], above 128 µg/mL; in the data set with Enterococcus faecalis, 8 µg/mL (≈ 19.3 µM); in the data set with Staphylococcus aureus [7], above 128 µg/mL; with Enterococcus faecium it was 8 µg/mL (≈ 19.3 µM). Besides, the minimal inhibitory concentration (MIC) in [8] is above 128 µg/mL; with Streptococcus pneumoniae [9], 3 µg/mL (≈ 7.25 µM); in the data set with Escherichia coli [11], above 128 µg/mL; in the data set with Streptococcus pneumoniae [12] it was 4 µg/mL (≈ 9.67 µM). The concentration for half-maximal inhibition (IC50) in [16] was above 37 µg/mL.
